Reference: ChEMBL document CHEMBL1201862, “PubChem BioAssay data set” (2004)
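Five compound concentrations were applied to cells in 96-well plates for 48 hours; endpoints were derived by simple linear interpolation of the resulting dose-response curve. GI50 = concentration required for 50% inhibition of growth.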 Activity calls are given as the source filed them. No stated cut-off is given here; in the data, active = GI50 up to about 1.1 µM and inactive = higher. Non-standard residues stand in square brackets, D forms with d. Residues, ends and D or L forms follow the SMILES beside them. *: point of attachment. NMeF = CN[CH](Cc1ccccc1)C(=O)O; NMeV = CN[CH](C(=O)O)C(C)C; Boc = CC(C)(C)OC(=O)*

Tests used:
Test in all cases: DTP human tumour cell line panel, 48 h
M14 = tested on: M14
SW-620 = tested on: SW-620
UACC-257 = tested on: UACC-257
UO-31 = tested on: UO-31
UACC-62 = tested on: UACC-62
IGROV-1 = tested on: IGROV-1
CAKI-1 = tested on: CAKI-1
SNB-19 = tested on: SNB-19
EKVX = tested on: EKVX
COLO 205 = tested on: COLO 205
SK-MEL-2 = tested on: SK-MEL-2
U-251 = tested on: U-251
SF-295 = tested on: SF-295
MOLT-4 = tested on: MOLT-4
HCT-15 = tested on: HCT-15
OVCAR-8 = tested on: OVCAR-8

| SMILES | GI50 (M14) | GI50 (SW-620) | GI50 (UACC-257) | GI50 (UO-31) | GI50 (UACC-62) | GI50 (IGROV-1) | GI50 (CAKI-1) | GI50 (SNB-19) | GI50 (EKVX) | GI50 (COLO 205) | GI50 (SK-MEL-2) | GI50 (U-251) | GI50 (SF-295) | GI50 (MOLT-4) | GI50 (HCT-15) [µM] | GI50 (OVCAR-8) |
| --- | --- | --- | --- | --- | --- | --- | --- | --- | --- | --- | --- | --- | --- | --- | --- | --- |
| O=C(CC(=O)C1CCOC1=O)C(=O)Nc1cccc(Cl)c1 (stereo unspecified) | > 100 µM (inactive) | > 100 µM (inactive) | > 100 µM (inactive) | > 100 µM (inactive) | > 100 µM (inactive) | > 100 µM (inactive) | > 100 µM (inactive) | > 100 µM (inactive) | > 100 µM (inactive) | > 100 µM (inactive) | > 100 µM (inactive) | > 100 µM (inactive) | > 100 µM (inactive) | > 100 µM (inactive) | > 100 | > 100 µM (inactive) |
| CCCO/N=[N+](\[O-])N(CC)CC | > 100 µM (inactive) | > 100 µM (inactive) | > 100 µM (inactive) | > 100 µM (inactive) | > 100 µM (inactive) | > 100 µM (inactive) |  | > 100 µM (inactive) | > 100 µM (inactive) |  | > 100 µM (inactive) | > 100 µM (inactive) | > 100 µM (inactive) | > 100 µM (inactive) | > 100 | > 100 µM (inactive) |
| COc1cc2c3c(c1OC)C1(C=CC(=O)C=C1)CC3N(C(=O)OC(C)(C)C(Cl)(Cl)Cl)CC2 (stereo unspecified) | 14.5 µM (inactive) | 18.3 µM (inactive) | 10.4 µM (inactive) | 14.5 µM (inactive) | 13.1 µM (inactive) | 16.6 µM (inactive) | 14.9 µM (inactive) | 14.9 µM (inactive) | 16.8 µM (inactive) | 12.4 µM (inactive) | 11 µM (inactive) | 10.5 µM (inactive) | 13.4 µM (inactive) | 2.97 µM (inactive) | 7.52 | 8.85 µM (inactive) |
| O=C(O)C(CS)NCc1c2ccccc2nc2ccccc12 (stereo unspecified) |  | 37.4 µM (inactive) | 57.8 µM (inactive) | 18.5 µM (inactive) |  | 27 µM (inactive) | 34.4 µM (inactive) | 58.6 µM (inactive) | 38.5 µM (inactive) | > 100 µM (inactive) | 68.2 µM (inactive) | 92 µM (inactive) | 43.2 µM (inactive) | 15.3 µM (inactive) | 31.6 | 32.6 µM (inactive) |
| CC12CCC3=C(CSC4=C3CSc3ccccc34)C1=CCCC2=O (stereo unspecified) | 27.8 µM (inactive) | > 100 µM (inactive) |  | 70.1 µM (inactive) |  |  | 35.1 µM (inactive) | 66.5 µM (inactive) | 42.5 µM (inactive) | 20.3 µM (inactive) | 64.3 µM (inactive) | 42.8 µM (inactive) |  | 16.8 µM (inactive) | 29.8 | 78.5 µM (inactive) |
| COC(=O)C1CCc2c(OC)ccc(OC)c2C1=O (stereo unspecified) | > 100 µM (inactive) | > 100 µM (inactive) | > 100 µM (inactive) | > 100 µM (inactive) | > 100 µM (inactive) | > 100 µM (inactive) | > 100 µM (inactive) | > 100 µM (inactive) | > 100 µM (inactive) | > 100 µM (inactive) | > 100 µM (inactive) | > 100 µM (inactive) | > 100 µM (inactive) | > 100 µM (inactive) |  | > 100 µM (inactive) |
| [N-]=[N+]=Nc1cc(=O)oc2ccccc12 | > 100 µM (inactive) | > 100 µM (inactive) | > 100 µM (inactive) | > 100 µM (inactive) | > 100 µM (inactive) | > 100 µM (inactive) | > 100 µM (inactive) |  |  | > 100 µM (inactive) | > 100 µM (inactive) | > 100 µM (inactive) | > 100 µM (inactive) | > 100 µM (inactive) | > 100 | > 100 µM (inactive) |
| [N-]=[N+]=Nc1c(Br)c(=O)[nH]c(=O)n1COCCO | > 100 µM (inactive) | > 100 µM (inactive) | > 100 µM (inactive) | > 100 µM (inactive) | > 100 µM (inactive) | > 100 µM (inactive) | > 100 µM (inactive) | > 100 µM (inactive) |  | > 100 µM (inactive) |  | > 100 µM (inactive) | > 100 µM (inactive) | > 100 µM (inactive) |  | > 100 µM (inactive) |
| O=C(O)c1ccc(NC(=O)C2C(=O)C(=O)N(c3ccc(C(=O)O)cc3)C2=O)cc1 (stereo unspecified) |  | > 100 µM (inactive) | > 100 µM (inactive) | > 100 µM (inactive) | > 100 µM (inactive) | > 100 µM (inactive) | > 100 µM (inactive) | > 100 µM (inactive) | > 100 µM (inactive) | > 100 µM (inactive) | > 100 µM (inactive) | > 100 µM (inactive) | > 100 µM (inactive) | > 100 µM (inactive) | > 100 | > 100 µM (inactive) |
| COc1ccc(C2C(Cl)C(=O)N2NC(=O)c2ccccc2O)cc1OC (stereo unspecified) | > 100 µM (inactive) |  | 93.8 µM (inactive) | 53.2 µM (inactive) | > 100 µM (inactive) | > 100 µM (inactive) |  | > 100 µM (inactive) |  |  | 92 µM (inactive) | 92.3 µM (inactive) | 51.8 µM (inactive) | 42.5 µM (inactive) | 68.9 | 93.1 µM (inactive) |
| COC(=O)c1ccccc1NC(=O)C(=O)Cc1nc2c3c(ccc2nc1O)C(=O)c1ccccc1C3=O | 12.7 µM (inactive) | 5.56 µM (inactive) | 16.3 µM (inactive) | 12.2 µM (inactive) | 4.48 µM (inactive) | 15.7 µM (inactive) | 10.9 µM (inactive) | 12.6 µM (inactive) | 5.21 µM (inactive) | 15.8 µM (inactive) | 15 µM (inactive) | 17.1 µM (inactive) |  | 10.3 µM (inactive) | 21.9 | 24.3 µM (inactive) |
| COc1ccc2nc3cc(Cl)ccc3c(Sc3ccc(NC(C)=O)cc3)c2c1 | 11.6 µM (inactive) | 14.2 µM (inactive) | 17.4 µM (inactive) |  | 15.3 µM (inactive) | > 32.4 µM (inactive) | > 27 µM (inactive) |  |  | 14.8 µM (inactive) | 12.3 µM (inactive) |  | > 25.9 µM (inactive) | 6.87 µM (inactive) |  | 8.28 µM (inactive) |
| CN1C(=O)CNS1(=O)=O | > 100 µM (inactive) | > 100 µM (inactive) | > 100 µM (inactive) | > 100 µM (inactive) | > 100 µM (inactive) | > 100 µM (inactive) |  | > 100 µM (inactive) |  |  | > 100 µM (inactive) | > 100 µM (inactive) | > 100 µM (inactive) | > 100 µM (inactive) | > 100 | > 100 µM (inactive) |
| Nc1nc(=O)[nH]c2c1cnn2COCCO | > 100 µM (inactive) | > 100 µM (inactive) | > 100 µM (inactive) | > 100 µM (inactive) |  | > 100 µM (inactive) | > 100 µM (inactive) | > 100 µM (inactive) | > 100 µM (inactive) | > 100 µM (inactive) | > 100 µM (inactive) | 22.4 µM (inactive) | > 100 µM (inactive) | > 100 µM (inactive) | > 100 | > 100 µM (inactive) |
| CN(C)c1ccc(/C=C/C=C\c2cc(/C=C/C=C/c3ccc(N(C)C)cc3)[s+]c3ccccc23)cc1.[O-][Cl+3]([O-])([O-])[O-] | 14.5 µM (inactive) | 63.4 µM (inactive) | 59.4 µM (inactive) | > 100 µM (inactive) | 28.2 µM (inactive) |  | 10 µM (inactive) | > 100 µM (inactive) | > 100 µM (inactive) | 29.3 µM (inactive) | 45.2 µM (inactive) | 10 µM (inactive) | > 100 µM (inactive) | > 100 µM (inactive) | 80.7 | 57.9 µM (inactive) |
| CC(C)C(NC(=O)OC(C)(C)C)C(=O)N(C)C(Cc1ccccc1)C(=O)N(C)C(C(=O)N(C)C(C(=O)O)C(C)C)C(C)C (stereo unspecified) (Boc-V[NMeF][NMeV][NMeV]-OH; configuration not given here) | > 100 µM (inactive) | > 100 µM (inactive) | > 100 µM (inactive) | > 100 µM (inactive) | > 100 µM (inactive) | > 100 µM (inactive) |  | > 100 µM (inactive) | > 100 µM (inactive) | > 100 µM (inactive) |  | > 100 µM (inactive) | > 100 µM (inactive) | > 100 µM (inactive) | > 100 | > 100 µM (inactive) |
| CN(C)CCCNC(=O)c1cccc2ccccc12 |  | > 100 µM (inactive) | > 100 µM (inactive) | > 10 µM (inactive) | > 100 µM (inactive) |  |  | > 100 µM (inactive) |  |  | > 100 µM (inactive) | > 100 µM (inactive) | > 100 µM (inactive) | > 100 µM (inactive) | > 100 | > 100 µM (inactive) |
| CCOC(=O)c1ccc(N2C(=O)Cc3ccccc3C2=O)cc1 |  | > 100 µM (inactive) | > 100 µM (inactive) | > 100 µM (inactive) | > 100 µM (inactive) | > 100 µM (inactive) |  | > 100 µM (inactive) | > 100 µM (inactive) | > 10 µM (inactive) | > 100 µM (inactive) | > 100 µM (inactive) | > 100 µM (inactive) | > 100 µM (inactive) | > 100 | > 100 µM (inactive) |
| O=C1C2=C(CCC2)Nc2cccc3ncn1c23 |  | 70.1 µM (inactive) | 64.7 µM (inactive) | > 100 µM (inactive) | 40.1 µM (inactive) | > 100 µM (inactive) |  | > 100 µM (inactive) | > 100 µM (inactive) | 43.4 µM (inactive) | 56.5 µM (inactive) | > 100 µM (inactive) | > 100 µM (inactive) | > 100 µM (inactive) | 48.1 | > 100 µM (inactive) |
| O=C(CC(=O)N1N=C(c2ccccc2)C(/N=N/c2ccc(Cl)cc2)C1=O)Nc1ccccc1Cl (stereo unspecified) | 28.1 µM (inactive) | 40.7 µM (inactive) |  | 22 µM (inactive) | 21.6 µM (inactive) | 36.4 µM (inactive) | 19.5 µM (inactive) | 21.2 µM (inactive) | 27.6 µM (inactive) | > 100 µM (inactive) | 32.4 µM (inactive) | 24.5 µM (inactive) |  | 33 µM (inactive) | 51.2 |  |
